From PMC12186843, “Targeting GABAergic Hypofunction Associated with Schizophrenia: Identification of α1β2γ2GABA‑A Receptor Ligands with Neuroprotective and Antipsychotic Properties” (ACS Chemical Neuroscience, 2025)

What was measured:
MDR1-MDCKII cell line = assay: A–B and B–A permeability assay in MDR1-MDCKII cell line
Procedure: The A–B and B–A permeability assay using the MDR1-MDCKII cell line was conducted at Eurofins Discovery according to a well-established protocol.

Wistar rats [1] = assay: Amphetamine-induced hyperlocomotion; format: in vivo, rat; conditions: i.p., doses of 3.0 mg/kg and 10.0 mg/kg, amphetamine 1.0 mg/kg i.p., p < 0.01
Procedure: (§1) 8 (A). […] The dose of 0 mg/kg corresponds to subjects treated with vehicle and amphetamine (1.0 mg/kg, i.p.). Data are presented as the mean ± SEM (n = 8). One-way ANOVA F(3,28)=0.2, p > 0.05, one-way ANOVA F(3,28)=[…], p < 0.01**. (B). […] The dose of 0 mg/kg corresponds to subjects treated with vehicle and MK-801 (0.3 mg/kg, i.p.). Data are presented as the mean ± SEM (n = 8). ** p < 0.01, Newman-Keuls test, F(3,28)=5.29, p = 0.005. (C) Effects of compound 9, administered at doses ranging from 1 to 10 mg/kg, on spontaneous locomotor activity in rats. Data are presented as the mean ± SEM (n = 8). One-way ANOVA F(3,28) = 0.3, p > 0.05, one-way ANOVA F(3,28) = 6.7, p < 0.01*.
(§2) All behavioral procedures were conducted using drug-naive male Wistar rats (Charles River, Sulzfeld, Germany), (n = 8/per group). Animals were housed in groups of four per standard plastic cage under controlled environmental conditions (temperature: 22 ± 1 °C, humidity: 60%, and a 12:12 light-dark cycle with lights on at 07:00 a.m.). […]
(§3) All procedures were performed in a sound-attenuated experimental room between 9:00 a.m. and 3:00 p.m. […] Locomotor activity was measured in black octagonal cages (80 cm diameter, 30 cm height) amid dim lighting and constant white noise (65 dB). […] Locomotor activity (cm/30 min) was recorded and analyzed using an automated motion monitoring system (Videomot, TSE, Bad Homburg, Germany). […]

Wistar rats [2] = assay: MK-801-induced hyperlocomotion; format: in vivo, rat; conditions: i.p., 1, 3 and 10 mg/kg, significant effect at 10 mg/kg, MK-801 0.3 mg/kg i.p.
Procedure: as §1, §2, §3

Wistar rats [3] = assay: Prepulse inhibition (PPI) test with MK-801; format: in vivo, rat; conditions: i.p.
Procedure: as §2, with “a.m.). Animals were obtained from the breeder 2 weeks prior to the initiation of behavioral procedures, during which time they were weighed and handled multiple times. Animals had ad libitum access to tap water and standard laboratory chow (Labofeed H, WPIK, Kcynia, Poland).” for “a.m.).”
The PPI apparatus consisted of eight startle chambers (SR-LAB, San Diego Instruments, San Diego, CA, USA). […] Startle responses, reflecting the movement of animals within the cylinder following an acoustic stimulus, were measured with a piezoelectric transducer positioned beneath the frame. […]
The preliminary stimuli were followed by 60 trials of varying intensities presented in random order, with a mean intertrial interval (ITI) of 22.5 s. […] Startle amplitudes were calculated as the average response across 10 trials for each stimulation type. […] Startle responses (in manufacturer’s arbitrary units), and magnitudes of PPI (%) were analyzed with the aid of a one-way analysis of variance (ANOVA). […]

[4] = rats, i.p., 3 mg/kg, ref Mordyl, B. et al. J. Med. Chem. 2024, 67 (24), 21859–21889, cited from earlier work

Cc1ccc2nc(-c3ccc(F)cc3)c(CC(=O)N3CCCC3)n2c1.O=C(O)C(O)C(O)C(=O)O [Compound 17, 2-(4-Fluorophenyl)-6-methyl-3-(2-oxo-2-(pyrrolidin-1-yl)-ethyl)imidazo[1,2-a]pyridin-1-ium 3-carboxy-2,3-dihydroxy-propanoate]
Substrate for P-glycoprotein (P-gp) efflux (MDR1-MDCKII cell line; MDCK-MDR1 permeability assay): not to be a substrate
Permeability A–B (MDR1-MDCKII cell line; pH 7.4/7.4, 6 and 17 at 10 μM): 55.6 10^–6 cm/s
Permeability B–A (MDR1-MDCKII cell line; pH 7.4/7.4, 6 and 17 at 10 μM): 29.7 10^–6 cm/s
Effect on amphetamine-induced hyperlocomotion (Wistar rats [1]): significantly reduced amphetamine-induced hyperlocomotion
Effect on MK-801-induced hyperlocomotion (Wistar rats [2]): reduced hyperlocomotion
Effect on basic startle response (Wistar rats [3]; F(3,28) = 1.66, p = 0.2): did not affect significantly basic startle response
Effect on MK-801-induced PPI deficits (Wistar rats [3]; prestimulus of 84 and 90 dB, p = 0.82 and p = 0.72): the effect did not reach statistical significance
t0.5 Plasma ([4]; n=6, plasma, terminal half life): 249 min
AUC0→t Brain ([4]; n=6, brain): 8229 ng·min/g
Cmax Brain ([4]; n=6, brain): 219.5 ng/g
MRT Brain ([4]; n=6, brain): 102.5 min
tmax Brain ([4]; n=6, brain): 5 min
t0.5 Brain ([4]; n=6, brain, terminal half life): 653.2 min
AUC0→t Plasma ([4]; n=6, plasma): 128271 ng·min/mL
MRT Plasma ([4]; n=6, plasma): 50.9 min
tmax Plasma ([4]; n=6, plasma): 5 min
